What was measured:
Test in all cases: relative viability (nuclei count vs DMSO), 5 days (fraction); higher = more cells survive
[1] = compound: CCc1cnn2c(NCc3ccc[n+]([O-])c3)cc(N3CCCC[C@H]3CCO)nc12 [Dinaciclib] + O=C(c1cc(Cc2n[nH]c(=O)c3ccccc23)ccc1F)N1CCN(C(=O)C2CC2)CC1 [Olaparib] (partner 8 µM)
In short: (§1)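 A single step with final 0.05% Triton X-100, 1% formaldehyde and 1 ug/ml Hoechst fixed the cells and stained nuclei 5 days after treatment. Lung cancer cell lines in 1536-well plates had been treated by pin tool the day after seeding with one drug alone or a fixed anchor-drug dose plus five library-drug doses (not always all listed) in √10 steps, and nuclei were counted on 4× images. Relative viability is the ratio of nuclei in treated wells to nuclei in vehicle wells, taken as the median of duplicate plates.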

[2] = compound: CCc1cnn2c(NCc3ccc[n+]([O-])c3)cc(N3CCCC[C@H]3CCO)nc12 [Dinaciclib] + CS(=O)(=O)CCNCc1ccc(-c2ccc3ncnc(Nc4ccc(OCc5cccc(F)c5)c(Cl)c4)c3c2)o1 [Lapatinib] (partner 2 µM)
In short: as §1

[3] = compound: CCc1cnn2c(NCc3ccc[n+]([O-])c3)cc(N3CCCC[C@H]3CCO)nc12 [Dinaciclib] + N=C(N)NC(=N)NCCc1ccccc1 [Phenformin] (partner 250 µM)
In short: as §1

[4] = compound: CCc1cnn2c(NCc3ccc[n+]([O-])c3)cc(N3CCCC[C@H]3CCO)nc12 [Dinaciclib] + Nc1nc2[nH]cc(CCc3ccc(C(=O)N[C@@H](CCC(=O)O)C(=O)O)cc3)c2c(=O)[nH]1 [Pemetrexed] (partner 0.2 µM)
In short: as §1

[5] = compound: CCc1cnn2c(NCc3ccc[n+]([O-])c3)cc(N3CCCC[C@H]3CCO)nc12 [Dinaciclib] + CC(=O)c1c(C)c2cnc(Nc3ccc(N4CCNCC4)cn3)nc2n(C2CCCC2)c1=O [Palbociclib] (partner 0.5 µM)
In short: as §1

Cell Line	relative viability ([1]; first compound 0.009487 µM)	relative viability ([1]; first compound 0.03 µM)	relative viability ([1]; first compound 0.09487 µM)	relative viability ([1]; first compound 0.3 µM)	relative viability ([2]; first compound 0.009487 µM)	relative viability ([2]; first compound 0.03 µM)	relative viability ([2]; first compound 0.09487 µM)	relative viability ([2]; first compound 0.3 µM)	relative viability ([3]; first compound 0.009487 µM)	relative viability ([3]; first compound 0.03 µM)	relative viability ([3]; first compound 0.09487 µM)	relative viability ([3]; first compound 0.3 µM)	relative viability ([4]; first compound 0.009487 µM)	relative viability ([4]; first compound 0.03 µM)	relative viability ([4]; first compound 0.09487 µM)	relative viability ([4]; first compound 0.3 µM)	relative viability ([5]; first compound 0.009487 µM)	relative viability ([5]; first compound 0.03 µM)	relative viability ([5]; first compound 0.09487 µM)	relative viability ([5]; first compound 0.3 µM)
201T	0.991	0.34	0.225	0.223	1.14	0.743	0.361	0.245	0.418	0.415	0.257	0.238	0.317	0.311	0.206	0.187	0.354	0.285	0.231	0.228
A549	0.276	0.0567	0.0423	0.0382	0.85	0.0505	0.0627	0.0615	0.174	0.0204	0.035	0.0274								
A-427	0.459	0.104	0.0978	0.101	0.949	0.291	0.0989	0.0767	0.328	0.094	0.0857	0.0889	0.883	0.156	0.101	0.112	0.437	0.142	0.126	0.127
ABC-1	0.807	0.316	0.272	0.252	1.19	0.574	0.357	0.303	0.209	0.157	0.13	0.132					0.648	0.334	0.212	0.246
BEN	0.956	0.457	0.258	0.26	0.731	0.343	0.166	0.186	0.235	0.217	0.174	0.209	1.07	0.501	0.23	0.274	0.458	0.386	0.287	0.296
CAL-12T	0.589	0.134	0.13	0.141	0.323	0.171	0.179	0.149	0.188	0.103	0.107	0.097	0.771	0.141	0.133	0.13	0.121	0.137	0.108	0.128
COR-L23	0.356	0.112	0.0765	0.0765	0.688	0.0875	0.0701	0.0804	0.296	0.0764	0.0763	0.069	0.184	0.21	0.112	0.093	0.222	0.0905	0.0689	0.0651
COR-L 105	0.957	0.391	0.312	0.269	0.327	0.292	0.283	0.299	0.384	0.217	0.208	0.201	0.91	0.291	0.348	0.295	0.414	0.311	0.296	0.309
ChaGo-K-1	0.371	0.145	0.0867	0.0975					0.414	0.17	0.125	0.137	0.257	0.216	0.149	0.119	0.971	0.239	0.118	0.114
EKVX	0.721	0.346	0.123	0.139	0.229	0.118	0.118	0.116	0.239	0.218	0.162	0.091	0.35	0.267	0.122	0.123	0.323	0.234	0.114	0.113
EMC-BAC-2	0.485	0.238	0.187	0.176	0.85	0.598	0.165	0.157	0.472	0.199	0.13	0.166	0.451	0.381	0.288	0.259	0.46	0.323	0.224	0.248
EPLC-272H	0.274	0.0455	0.0344	0.036	1	0.104	0.0545	0.051	0.344	0.122	0.0306	0.0277	0.189	0.0576	0.0509	0.0711	0.275	0.0744	0.0435	0.0386
H3255	0.536	0.253	0.2	0.19	0.378	0.233	0.123	0.214	0.333	0.305	0.315	0.28	0.633	0.423	0.227	0.213	0.315	0.257	0.232	0.225
HARA	0.366	0.0835	0.0659	0.14	0.604	0.0778	0.0593	0.0436	0.518	0.129	0.0472	0.0313	0.24	0.172	0.122	0.0976	0.204	0.126	0.0948	0.0798
HCC-15	0.494	0.199	0.106	0.119	0.63	0.104	0.0985	0.0923	0.352	0.115	0.107	0.103	0.217	0.122	0.128	0.125	0.673	0.292	0.107	0.132
HCC-44	1.07	0.556	0.361	0.272	0.921	0.144	0.134	0.135	0.138	0.105	0.0633	0.0778	0.665	0.695	0.388	0.351	0.9	0.798	0.367	0.342

— the supplement of paper PMC10307832
